Measured values as given in PMC8192908 (Scientific Reports, 2021).
Where “and” joins values, the source holds several entries; their conditions need not be identical. Equal values may be shown once. Marks after values point to notes of the source that are not given here.

Assays:
[1] = system: Oct4, Sox2, Nanog, Cdx2 in blastocysts; assay: mRNA expression of pluripotency and trophectoderm genes in blastocysts; type: cell-based, Swiss albino mice; conditions: PTX 1 mM, PTXm-1 0.25 mM
Procedure: RNA was extracted from blastocyst stage embryos (30 per group) using an RNA isolation aqueous micro kit (Catalogue No. AM1931; Ambion, Foster City, CA, USA) as explained. Briefly, embryos were lysed using lysis buffer to release total RNA and was eluted using elution buffer. RNA obtained was treated with DNase for 20 min at 37 °C and stored at − 80 °C. cDNA was synthesized using a Superscript first strand cDNA synthesis kit for reverse transcription polymerase chain reaction (Catalogue No. E6300; NewEngland Biolabs, Ipswich, MA, USA).
Quantitative PCR for relative expression of Sox2, Nanog, and Oct4 mRNA was done using StepOne real-time PCR system (Applied Biosystems, California, USA) with TaqMan® Gene Expression Assay probes and TaqMan® Fast Advanced MixThe relative mRNA expression of Cdx2 was also estimated using real-time PCR system with SYBER Green chemistry (TaKaRa, Shiga, Japan, Cat. No. RR420A). All the data were normalized with GAPDH housekeeping gene as an internal control. The relative expression levels were calculated in terms of fold change. The IDs for TaqMan® Gene Expression Assay probes used in this study and the specific primers used for Cdx2 gene and GAPDH housekeeping gene are given in Supplementary Table S1.

[2] = system: intracellular cAMP in spermatozoa; assay: Intracellular cAMP in spermatozoa; type: cell-based, human; conditions: 1 h after incubation; PTX 1 mM, PTXm-1 0.25 mM
Procedure: Sperm suspension was centrifuged at 800 g for 10 min and supernatant obtained was frozen at − 80 °C until further analysis. The cAMP level was measured using cAMP test kit as explained by the manufacturers (Elabscience®, Cat. No. E-EL-0056) as described in our earlier report. Briefly, 50 μL of cAMP detection standard or test samples were added to each well of the multi well plate, followed by addition of biotinylated detection solution (50 μL). After 45 min of incubation at 37 °C, the solutions from each well were decanted. The wells of the plate were further washed 3 times using wash buffer and then incubated with 100 μL horse radish peroxidase (HRP) conjugate for 30 min at 37 °C. Further, each well of the multi well plate was washed repeatedly (5 times) and then incubated with 90 μL substrate reagent for 15 min at 37 °C. Finally, the reaction was stopped by adding 50 μL of stop solution and, immediately OD450nm of the each well was measured using Skanit software 5.0 (Multiskan, Photometer, Thermoscientific). The assay was performed in duplicates and standard curve was plotted. The concentration of cAMP was extrapolated from the standard curve.

[3] = system: tyrosine phosphorylated sperm proteins; assay: Tyrosine phosphorylation of sperm proteins by immunofluorescence; type: cell-based, human; conditions: PTX 1 mM, PTXm-1 0.25 mM; control 16%
Procedure: The cells were incubated with blocking solution (PBS containing 1% BSA and 0.1% Tween-20) for 1 h followed by incubation at 4 °C overnight with anti phospho-tyrosine antibody (1:300 dilution, Clone PY20, Merck Millipore, Cat. No. 05–947). […] No. S6MQT0101), cells were counterstained with DAPI and observed under fluorescence microscope (1000x, oil immersion). The number of tyrosine phosphoprotein positive spermatozoa were counted in total of 500 spermatozoa and the result was expressed in percentage spermatozoa.

[4] = system: spermatozoa, oocytes and embryos of Swiss albino mice; assay: In vitro fertilization and pre-implantation embryo development; type: cell-based; conditions: for Total cell number (Mean ± SE): blastocysts, PTX 1 mM, PTXm-1 0.25 mM, control 92.78 ± 6.58; for Hatching rate at 120 h post insemination / Blastocyst rate at 120 h post insemination / Fertilization rate at 16 h post insemination: sperm treated with PTX 1 mM or PTXm-1 0.25 mM; for Hatching rate at 120 h post insemination: control 64.56; for Blastocyst rate at 120 h post insemination: control 81.67; for Fertilization rate at 16 h post insemination: control 83.56
Procedure: The adult female Swiss albino mice were stimulated using 5 IU of pregnant mare serum gonadotropin (PMSG) and 10 IU of human chorionic gonadotropin (hCG) at an interval of 48 h. At 13 h post hCG administration, the cumulus oocyte complexes (COCs) were collected by teasing the oviduct into M2 medium. To assess the effect of PTXm-1 on fertilization outcome and the early embryo development, Swiss albino mice were used. The male mice (6 to 8 weeks, N = 6 per trial, total 3 trials) were humanely sacrificed by cervical dislocation and cauda was dissected out. The IVF was performed as described in our earlier report. Briefly, the cauda was teased in a Petri dish containing EBSS (with 0.1% BSA) culture media and incubated at 37 °C, 5% CO2 incubator. After 2 h of incubation, the spermatozoa were collected and divided equally into 4 parts as C, VC, […] and PTXm-1 groups. The sperm suspension was centrifuged at 250 g for 8 min and the supernatant was discarded. […] The overlay containing motile sperm fraction of were collected carefully without disturbing the pellet, and were used for preparation of insemination droplets (80 µL) which was covered with paraffin oil (Cat. No. 61822605001730, Merck, Germany). The female mice were sacrificed humanely by cervical dislocation (N = 12 per trial, total 3 trials). […] […] Blastocyst rate, hatching rate and, DNA damage and total cell number was assessed in blastocysts.

[5] = system: spermatozoa from normozoospermic samples; assay: Calcium ionophore-induced acrosome reaction assay; type: cell-based, human; conditions: PTX 1 mM, PTXm-1 0.25 mM
Procedure: The ionophore-induced acrosome reaction was assessed using a method described earlier. The swim-up fraction collected (at 1 and 2 h after incubation) from various groups were incubated with calcium ionophore A23187 (Sigma-Aldrich, Cat. No. C7522) at 37 °C for 1 h (N = 28, normozoospermic). Sperm suspension was washed with phosphate buffered solution (PBS), centrifuged at 300 g for 10 min and fixed on a coverslip using methanol. The spermatozoa were stained with Fluorescein isothiocyanate-conjugated Pisum sativum agglutinin (FITC-PSA, Sigma-Aldrich, Cat. No. L0770), washed with Milli-Q water, counterstained with propidium iodide (PI) and then mounted on slide using mounting media. Percentage of acrosome reacted spermatozoa (without green florescence in acrosome region) were counted in 500 spermatozoa by observing under fluorescence microscope (400x).

SMILES | expression of pluripotency genes in blastocysts [1] | intracellular cAMP level vs control and vehicle control [2] | spermatozoa with tyrosine phosphorylated proteins [3] [%] | Total cell number (Mean ± SE) [4] | Hatching rate at 120 h post insemination [4] | Blastocyst rate at 120 h post insemination [4] | Fertilization rate at 16 h post insemination [4] | acrosome reacted spermatozoa ([5]; 1 h, control 15.21%) [%] | acrosome reacted spermatozoa ([5]; 2 h) [%]
COc1ccc2cc(/C=C/C(=O)CCCCn3c(=O)c4c(ncn4C)n(C)c3=O)ccc2c1 [PTXm-1] | did not differ between the groups | significantly higher | 23.25 | 93.23 ± 8.56^e | 66.89^b,d % | 88.45^b,d % | 96.25% and 96.25^b,c % | 15.78 | 25.17
CC(=O)CCCCn1c(=O)c2c(ncn2C)n(C)c1=O [PTX, pentoxifylline] | did not differ between the groups | significantly higher | 24.75 | 88.91 ± 6.56^b,c | 67.56^a,c % | 86.34^a,c % | 95.64% and 95.64^b,c % | 24.25 | 34.28
